Results from patent US9765085B2, “SHIP1 modulators and methods related thereto” (Aquinox Pharmaceuticals (Canada) Inc., priority 2013, dated 2017).

target: T1, His-hSHIP1 enzyme (Homo sapiens, UniProt Q92835); test: His-hSHIP1 activity (phosphatase assay, IP4 substrate, Biomol Green); assay type: biochemical; set-up: key: +++: higher than reference or reference - 15%; ++: reference - 16% to reference - 30%; +: reference - 31% or lower; −: inhibitor; conditions: ratio of initial velocities (IP4 25/IP4 250 μM final) compared with a reference SHIP1 activator; 37° C.
T1 construct: His
T1 sequence (Q92835 1-1189): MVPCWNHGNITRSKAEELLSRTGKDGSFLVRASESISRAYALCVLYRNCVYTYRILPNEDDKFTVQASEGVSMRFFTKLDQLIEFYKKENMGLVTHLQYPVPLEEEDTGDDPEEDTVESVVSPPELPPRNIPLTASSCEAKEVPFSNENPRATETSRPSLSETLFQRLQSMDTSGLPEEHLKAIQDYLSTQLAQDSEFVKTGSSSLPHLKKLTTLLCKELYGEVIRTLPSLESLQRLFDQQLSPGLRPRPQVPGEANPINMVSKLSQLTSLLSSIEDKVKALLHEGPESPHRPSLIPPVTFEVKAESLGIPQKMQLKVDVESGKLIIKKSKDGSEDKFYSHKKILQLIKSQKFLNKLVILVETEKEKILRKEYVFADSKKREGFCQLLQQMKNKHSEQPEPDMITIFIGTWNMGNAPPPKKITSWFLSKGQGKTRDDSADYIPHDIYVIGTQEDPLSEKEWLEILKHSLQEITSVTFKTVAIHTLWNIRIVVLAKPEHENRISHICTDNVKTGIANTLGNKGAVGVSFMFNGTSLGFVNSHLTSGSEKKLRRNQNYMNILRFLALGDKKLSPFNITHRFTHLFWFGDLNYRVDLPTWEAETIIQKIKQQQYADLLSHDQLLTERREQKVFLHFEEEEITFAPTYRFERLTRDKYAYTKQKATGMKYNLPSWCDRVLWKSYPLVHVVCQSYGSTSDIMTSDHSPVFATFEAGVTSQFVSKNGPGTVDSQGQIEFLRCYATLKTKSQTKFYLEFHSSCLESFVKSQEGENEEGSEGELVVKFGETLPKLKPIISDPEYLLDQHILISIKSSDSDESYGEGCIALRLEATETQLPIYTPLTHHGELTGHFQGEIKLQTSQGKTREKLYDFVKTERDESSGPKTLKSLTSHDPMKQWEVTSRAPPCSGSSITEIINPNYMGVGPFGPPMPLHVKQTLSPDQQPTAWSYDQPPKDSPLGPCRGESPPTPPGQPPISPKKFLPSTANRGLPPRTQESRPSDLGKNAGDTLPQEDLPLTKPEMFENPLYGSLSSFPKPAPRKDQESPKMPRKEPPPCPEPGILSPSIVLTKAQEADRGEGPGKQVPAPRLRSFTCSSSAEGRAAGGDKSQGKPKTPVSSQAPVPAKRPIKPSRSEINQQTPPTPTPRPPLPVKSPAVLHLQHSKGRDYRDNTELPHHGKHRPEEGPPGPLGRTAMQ
Method: Test compounds are dissolved in 95% ethanol to form stock solutions. Before screening, the stock solutions are diluted with Phosphatase Assay Buffer (20 mM Tris-HCL, 10 mM MgCl2 pH 7.5, 0.02% Tween 20) to form working assay solutions that contain 10% ethanol. The assay is carried out on 96-well microtiter plates using a modified procedure of that reported by Ong et al., Blood 110, 1942-1949, 2007 and Yang et al., Org Lett 7, 1073-1076, 2005, both of which references are incorporated herein by reference in their entirety.
A master mix is prepared that contains 50 μL of His-hSHIP1 enzyme (0.4-1.6 ng/μL final), 25 μL of the substrate, IP4 (25 or 250 μM final), and 50 μL of test compound in 3.3% ethanol ([…]). Control blanks are also prepared by replacing His-hSHIP1 enzyme, IP4, or test compounds with Phosphate Assay Buffer. […] Each reaction component is preincubated at 37° C. for 30 min before adding to a 96-well microtiter plate. The master mix is then incubated at 37° C. At time 0, 20, 25 and 30 min, 25 μL of the master mix is removed and transferred to a new 96-well microtiter plate, to which 100 μL of Biomol Green Reagent is added to stop the reaction. After incubating the mixture for 20 min at room temperature for color development, the absorbance is read with SpectraMax Plus 96-well plate reader at a wavelength of 650 nm. Phosphate released is plotted against time to calculate the initial velocities (i.e., slope of the graph) at each IP4 concentration. The initial velocities are baseline corrected and the ratio of initial velocities (IP425/IP4250) is calculated and used to rate the test compounds.
The compound numbers in Table 2 correspond to the compound numbers in Table 1 above. Scoring of the compound is expressed as follows: […]

Row | Compound | Scoring (Initial Velocity Ratio)
1 | CN/C(=N\C#N)NC[C@H]1C2=C(CC[C@@H]1[C@@]1(C)CC[C@H](O)C[C@@H]1CO)C(C)(C)CC2 [compound 3, (E)-2-cyano-1-(((4R,5S)-5-((1R,2S,4S)-4-hydroxy-2-(hydroxymethyl)-1-methylcyclohexyl)-1,1-dimethyl-2,3,4,5,6,7-hexahydro-1H-inden-4-yl)methyl)-3-methylguanidine] | ++
2 | C[C@]1([C@H]2CC[C@]3(C)C(c4ccco4)=CC[C@H]3[C@@H]2CN)CC[C@H](O)C[C@@H]1CO [compound 13, (1S,3S,4R)-4-((3aS,6S,7R,7aS)-7-(aminomethyl)-3-(furan-2-yl)-3a-methyl-3a,4,5,6,7,7a-hexahydro-1H-inden-6-yl)-3-(hydroxymethyl)-4-methylcyclohexanol] | +
3 | C[C@]1([C@H]2CCC3=C(C[C@@H](O)[C@@]3(C)c3ccccc3)[C@@H]2CN)CC[C@H](O)C[C@@H]1CO [compound 19, (1S,2R,4R,5S)-4-(aminomethyl)-5-((1R,2S,4S)-4-hydroxy-2-(hydroxymethyl)-1-methylcyclohexyl)-1-methyl-1-phenyl-2,3,4,5,6,7-hexahydro-1H-inden-2-ol] | ++
4 | C=C1CC[C@H]2[C@H](CO)[C@@H]([C@@]3(C)CC[C@H](NC(C)=O)C[C@@H]3CO)CC[C@]12C [compound 32, N-((1S,3S,4R)-3-(hydroxymethyl)-4-((3aS,4R,5S,7aS)-4-(hydroxymethyl)-7a-methyl-1-methyleneoctahydro-1H-inden-5-yl)-4-methylcyclohexyl)acetamide] | ++
5 | C[C@]1([C@H]2CC[C@@]3(C)[C@@H](CC[C@@]3(O)c3ccco3)[C@@H]2CN)CC[C@H](O)C[C@@H]1CO [compound 12, (1S,3aS,4R,5S,7aS)-4-(aminomethyl)-1-(furan-2-yl)-5-((1R,2S,4S)-4-hydroxy-2-(hydroxymethyl)-1-methylcyclohexyl)-7a-methyloctahydro-1H-inden-1-ol] | +++
6 | C[C@]1([C@H]2CC[C@@]3(C)[C@@H](CC[C@@]3(O)c3ccccn3)[C@@H]2CN)CC[C@H](O)C[C@@H]1CO [compound 17, (1S,3aS,4R,5S,7aS)-4-(aminomethyl)-5-((1R,2S,4S)-4-hydroxy-2-(hydroxymethyl)-1-methylcyclohexyl)-7a-methyl-1-(pyridin-2-yl)octahydro-1H-inden-1-ol] | −
7 | C[C@]1([C@H]2CC[C@]3(C)c4[nH]ncc4C[C@H]3[C@@H]2CO)CC[C@H](O)C[C@@H]1CO [compound 33, (1S,3S,4R)-3-(hydroxymethyl)-4-((4aS,5R,6S,8aS)-5-(hydroxymethyl)-8a-methyl-1,4,4a,5,6,7,8,8a-octahydroindeno[1,2-c]pyrazol-6-yl)-4-methylcyclohexanol] | +
8 | C=C1CC[C@H]2[C@H](CO)[C@@H]([C@@]3(C)Cc4conc4C[C@@H]3CO)CC[C@]12C [compound 22, ((3aS,4R,5S,7aS)-5-((5R,6S)-6-(hydroxymethyl)-5-methyl-4,5,6,7-tetrahydrobenzo[c]isoxazol-5-yl)-7a-methyl-1-methyleneoctahydro-1H-inden-4-yl)methanol] | ++
9 | C=C1CC[C@H]2[C@H](CO)[C@@H]([C@@]3(C)Cc4cn[nH]c4C[C@@H]3CO)CC[C@]12C [compound 21, ((3aS,4R,5S,7aS)-5-((5R,6S)-6-(hydroxymethyl)-5-methyl-4,5,6,7-tetrahydro-1H-indazol-5-yl)-7a-methyl-1-methyleneoctahydro-1H-inden-4-yl)methanol] | +
10 | C[C@@H]1CC[C@@]2(OC1)O[C@H]1C[C@H]3[C@H](CO)[C@@H]([C@@]4(C)CC[C@H](O)C[C@@H]4CO)CC[C@]3(C)[C@H]1[C@@H]2C [compound 29, (1S,3S,4R)-3-(hydroxymethyl)-4-((2R,3S,3aR,3bS,5′R,6S,7R,7aS,8aS)-7-(hydroxymethyl)-3,3b,5′-trimethyltetradecahydrospiro[indeno[2,1-b]furan-2,2′-pyran]-6-yl)-4-methylcyclohexanol] | ++
11 | CC1(C)CCC2=C1CC[C@H]([C@@]1(C)CC[C@H](O)C[C@@H]1CO)[C@H]2CNC(=O)c1cccnc1 [compound 1, N-(((4R,5S)-5-((1R,2S,4S)-4-hydroxy-2-(hydroxymethyl)-1-methylcyclohexyl)-1,1-dimethyl-2,3,4,5,6,7-hexahydro-1H-inden-4-yl)methyl)nicotinamide] | +
12 | C[C@]1([C@H]2CC[C@]3(C)C(c4ccccc4)=CC[C@H]3[C@@H]2CN)CC[C@H](O)C[C@@H]1CO.Cl [compound 10, (1S,3S,4R)-4-((3aS,6S,7R,7aS)-7-(aminomethyl)-3a-methyl-3-phenyl-3a,4,5,6,7,7a-hexahydro-1H-inden-6-yl)-3-(hydroxymethyl)-4-methylcyclohexanol hydrochloride] | ++
13 | C#C[C@]1(O)CC[C@H]2[C@H](CO)[C@@H]([C@@]3(C)CC[C@H](O)C[C@@H]3CO)CC[C@@]21C [compound 28, (1R,3aS,4R,5S,7aS)-1-ethynyl-5-((1R,2S,4S)-4-hydroxy-2-(hydroxymethyl)-1-methylcyclohexyl)-4-(hydroxymethyl)-7a-methyloctahydro-1H-inden-1-ol] | ++
14 | C[C@]1([C@H]2CC[C@@]3(C)[C@@H](CC[C@@]3(O)c3nccs3)[C@@H]2CN)CC[C@H](O)C[C@@H]1CO [compound 20, (1S,3aS,4R,5S,7aS)-4-(aminomethyl)-5-((1R,2S,4S)-4-hydroxy-2-(hydroxymethyl)-1-methylcyclohexyl)-7a-methyl-1-(thiazol-2-yl)octahydro-1H-inden-1-ol] | ++
15 | CC(=O)O.CC1(C2CCC3(C)C(CCC3(O)c3ccccc3)C2CN)CCC(O)CC1CO [compound 11, (1S,3aS,4R,5S,7aS)-4-(aminomethyl)-5-((1R,2S,4S)-4-hydroxy-2-(hydroxymethyl)-1-methylcyclohexyl)-7a-methyl-1-phenyloctahydro-1H-inden-1-ol acetate] | −
16 | C[C@]1([C@H]2CC[C@]3(C)C(c4cccs4)=CC[C@H]3[C@@H]2CN)CC[C@H](O)C[C@@H]1CO [compound 16, (1S,3S,4R)-4-((3aS,6S,7R,7aS)-7-(aminomethyl)-3a-methyl-3-(thiophen-2-yl)-3a,4,5,6,7,7a-hexahydro-1H-inden-6-yl)-3-(hydroxymethyl)-4-methylcyclohexanol] | +
17 | C=C1CC[C@H]2[C@H](CO)[C@@H]([C@@]3(C)Cc4sc(C)nc4C[C@@H]3CO)CC[C@]12C [compound 24, ((3aS,4R,5S,7aS)-5-((5S,6R)-5-(hydroxymethyl)-2,6-dimethyl-4,5,6,7-tetrahydrobenzo[d]thiazol-6-yl)-7a-methyl-1-methyleneoctahydro-1H-inden-4-yl)methanol] | ++
